Publication PMC12494553, “A unique gating mechanism revealed by the cryo-EM structure of monomeric ATP9A flippase” (The Journal of Biological Chemistry, 2025)

Target: T1, ATP9A (Homo sapiens, UniProt O75110)
T1 construct: N-terminal region before Pro38 deleted; N-terminal His6-EGFP tag cut off with HRV-3C; HEK293S GnT1- (BacMam); LMNG/GDN micelles; monomer, about 90 kDa
T1 sequence (O75110 38-1047): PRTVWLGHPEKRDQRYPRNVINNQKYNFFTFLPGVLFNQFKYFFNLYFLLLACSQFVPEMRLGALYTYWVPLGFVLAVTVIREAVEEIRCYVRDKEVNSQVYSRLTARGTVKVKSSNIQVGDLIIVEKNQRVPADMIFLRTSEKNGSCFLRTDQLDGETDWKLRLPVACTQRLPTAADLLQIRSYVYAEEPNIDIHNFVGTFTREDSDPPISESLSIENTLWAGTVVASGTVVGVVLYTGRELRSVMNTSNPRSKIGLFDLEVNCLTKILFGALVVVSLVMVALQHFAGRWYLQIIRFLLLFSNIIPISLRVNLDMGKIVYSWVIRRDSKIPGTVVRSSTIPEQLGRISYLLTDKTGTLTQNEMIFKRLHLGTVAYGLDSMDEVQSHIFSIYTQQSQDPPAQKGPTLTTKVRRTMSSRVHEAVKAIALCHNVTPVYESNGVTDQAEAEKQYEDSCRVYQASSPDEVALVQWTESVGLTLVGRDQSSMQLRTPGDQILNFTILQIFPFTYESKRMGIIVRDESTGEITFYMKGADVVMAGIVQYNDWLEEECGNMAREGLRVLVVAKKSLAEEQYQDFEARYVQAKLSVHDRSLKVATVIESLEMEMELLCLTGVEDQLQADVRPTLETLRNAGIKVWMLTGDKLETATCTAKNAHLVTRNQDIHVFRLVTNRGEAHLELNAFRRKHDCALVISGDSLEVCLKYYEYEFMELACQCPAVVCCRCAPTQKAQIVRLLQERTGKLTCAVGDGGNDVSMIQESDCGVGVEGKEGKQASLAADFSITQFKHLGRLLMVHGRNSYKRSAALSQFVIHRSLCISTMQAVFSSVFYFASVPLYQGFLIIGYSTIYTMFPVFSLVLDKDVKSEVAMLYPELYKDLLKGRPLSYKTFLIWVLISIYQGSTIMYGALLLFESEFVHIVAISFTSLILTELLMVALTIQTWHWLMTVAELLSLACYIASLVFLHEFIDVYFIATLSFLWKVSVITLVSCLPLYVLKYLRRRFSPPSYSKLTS
Assay: cryo-EM structure
Assay type: binding

With [F][Be-]([F])[F] [BeF] the cryo-EM structure (phosphate analog bound at catalytic Asp391, E2P state, open (9VDK, 2.18 Å) and closed (9VDL, 2.31 Å) forms, made from 1 mM BeSO4 and 3 mM NaF, also used as ATPase blank) was “The phosphate analog BeF is bound to the catalytic Asp391”.

For CC(C)CCC[C@@H](C)[C@H]1CC[C@H]2[C@@H]3CC=C4C[C@@H](O)CC[C@]4(C)[C@H]3CC[C@]12C [CLR, cholesterol], the cryo-EM structure (open form, E2P BeF state, lipid modelled from density, not added, outside canonical phospholipid site) was “Bound phospholipids (PLs) and cholesterol (CLR) in the open form are indicated”.
